According to patent US6472348B1, “Pyridone derivatives and herbicides” (Kumiai Chemical Industry Co., Ltd., priority 1996, dated 2002):

system: Digitaria ciliaris (Di); experiment: Test Example 2: herbicidal effects by upland field soil treatment; type: in vivo; conditions: 100 g of the active ingredient per 10 ares, 21st day after the application, index 0-5 of Table 47;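 note: grade of growth control; 5 = at least 90%; 4 = 70 to 90%; 3 = 50 to 70%; 2 = 30 to 50%; 1 = 10 to 30%; 0 = under 10%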
Source text: (§1) (Test on Herbicidal Effects by Upland Field Soil Treatment)

| SMILES | Herbicidal effects Di |
| --- | --- |
| CCCC(Oc1cc(-c2ccc(C(F)(F)F)n(C)c2=O)c(F)cc1Cl)C(=O)OCC (racemic) [1-121] | 5 |
| Cn1c(C(F)(F)F)ccc(-c2cc(C=NO)c(Cl)cc2F)c1=O [1-164] | 5 |
| CCCCOc1cc(-c2ccc(C(F)(F)F)n(C)c2=O)c(F)cc1Cl [1-166] | 5 |
| CCS(=O)(=O)Nc1cc(-c2ccc(C(F)(F)F)n(C)c2=O)c(F)cc1Cl [1-61] | 5 |

system: barnyardgrass (Ec); experiment: as above; type: in vivo; conditions: 100 g of the active ingredient per 10 ares, 21st day after the application, index 0-5 of Table 47
Source text: as §1

| SMILES | Herbicidal effects Ec |
| --- | --- |
| CCCC(Oc1cc(-c2ccc(C(F)(F)F)n(C)c2=O)c(F)cc1Cl)C(=O)OCC (racemic) [1-121] | 5 |
| Cn1c(C(F)(F)F)ccc(-c2cc(C=NO)c(Cl)cc2F)c1=O [1-164] | 5 |
| CCCCOc1cc(-c2ccc(C(F)(F)F)n(C)c2=O)c(F)cc1Cl [1-166] | 5 |
| CCS(=O)(=O)Nc1cc(-c2ccc(C(F)(F)F)n(C)c2=O)c(F)cc1Cl [1-61] | 5 |

system: rice flatsedge (Ci); experiment: as above; type: in vivo; conditions: 100 g of the active ingredient per 10 ares, 21st day after the application, index 0-5 of Table 47
Source text: as §1

| SMILES | Herbicidal effects Ci |
| --- | --- |
| CCCC(Oc1cc(-c2ccc(C(F)(F)F)n(C)c2=O)c(F)cc1Cl)C(=O)OCC (racemic) [1-121] | 5 |
| Cn1c(C(F)(F)F)ccc(-c2cc(C=NO)c(Cl)cc2F)c1=O [1-164] | 5 |
| CCCCOc1cc(-c2ccc(C(F)(F)F)n(C)c2=O)c(F)cc1Cl [1-166] | 5 |
| CCS(=O)(=O)Nc1cc(-c2ccc(C(F)(F)F)n(C)c2=O)c(F)cc1Cl [1-61] | 5 |

system: pale smartweed (Po); experiment: as above; type: in vivo; conditions: 100 g of the active ingredient per 10 ares, 21st day after the application, index 0-5 of Table 47
Source text: as §1

| SMILES | Herbicidal effects Po |
| --- | --- |
| CCCC(Oc1cc(-c2ccc(C(F)(F)F)n(C)c2=O)c(F)cc1Cl)C(=O)OCC (racemic) [1-121] | 5 |
| Cn1c(C(F)(F)F)ccc(-c2cc(C=NO)c(Cl)cc2F)c1=O [1-164] | 5 |
| CCCCOc1cc(-c2ccc(C(F)(F)F)n(C)c2=O)c(F)cc1Cl [1-166] | 5 |
| CCS(=O)(=O)Nc1cc(-c2ccc(C(F)(F)F)n(C)c2=O)c(F)cc1Cl [1-61] | 5 |

system: common lambsquarters (Ch); experiment: as above; type: in vivo; conditions: 100 g of the active ingredient per 10 ares, 21st day after the application, index 0-5 of Table 47
Source text: as §1

| SMILES | Herbicidal effects Ch |
| --- | --- |
| CCCC(Oc1cc(-c2ccc(C(F)(F)F)n(C)c2=O)c(F)cc1Cl)C(=O)OCC (racemic) [1-121] | 5 |
| Cn1c(C(F)(F)F)ccc(-c2cc(C=NO)c(Cl)cc2F)c1=O [1-164] | 5 |
| CCCCOc1cc(-c2ccc(C(F)(F)F)n(C)c2=O)c(F)cc1Cl [1-166] | 5 |
| CCS(=O)(=O)Nc1cc(-c2ccc(C(F)(F)F)n(C)c2=O)c(F)cc1Cl [1-61] | 5 |

system: slender amaranth (Am); experiment: as above; type: in vivo; conditions: 100 g of the active ingredient per 10 ares, 21st day after the application, index 0-5 of Table 47
Source text: as §1

| SMILES | Herbicidal effects Am |
| --- | --- |
| CCCC(Oc1cc(-c2ccc(C(F)(F)F)n(C)c2=O)c(F)cc1Cl)C(=O)OCC (racemic) [1-121] | 5 |
| Cn1c(C(F)(F)F)ccc(-c2cc(C=NO)c(Cl)cc2F)c1=O [1-164] | 5 |
| CCCCOc1cc(-c2ccc(C(F)(F)F)n(C)c2=O)c(F)cc1Cl [1-166] | 5 |
| CCS(=O)(=O)Nc1cc(-c2ccc(C(F)(F)F)n(C)c2=O)c(F)cc1Cl [1-61] | 5 |

system: barnyardgrass (Ec); experiment: Test Example 1: herbicidal effects by paddy field soil treatment; type: in vivo; conditions: 100 g of the active ingredient per 10 ares, 21st day after the application, index 0-5 of Table 47;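 note: grade of growth control; 5 = at least 90%; 4 = 70 to 90%; 3 = 50 to 70%; 2 = 30 to 50%; 1 = 10 to 30%; 0 = under 10%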
How it was run: (§2)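 Scoring of herbicidal effect came 21 days after application of 100 g active ingredient per 10 ares to flooded (3 cm) paddy-soil pots sown with barnyardgrass, monochoria and bulrush, kept in a greenhouse.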

| SMILES | Herbicidal effects Ec |
| --- | --- |
| CCCC(Oc1cc(-c2ccc(C(F)(F)F)n(C)c2=O)c(F)cc1Cl)C(=O)OCC (racemic) [1-121] | 5 |
| Cn1c(C(F)(F)F)ccc(-c2cc(C=NO)c(Cl)cc2F)c1=O [1-164] | 5 |
| CCCCOc1cc(-c2ccc(C(F)(F)F)n(C)c2=O)c(F)cc1Cl [1-166] | 5 |
| CCS(=O)(=O)Nc1cc(-c2ccc(C(F)(F)F)n(C)c2=O)c(F)cc1Cl [1-61] | 5 |

system: monochoria (Mo); experiment: as above; type: in vivo; conditions: 100 g of the active ingredient per 10 ares, 21st day after the application, index 0-5 of Table 47;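 note: grade of growth control; 5 = at least 90%; 4 = 70 to 90%; 3 = 50 to 70%; 2 = 30 to 50%; 1 = 10 to 30%; 0 = under 10%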
How it was run: as §2

| SMILES | Herbicidal effects Mo |
| --- | --- |
| CCCC(Oc1cc(-c2ccc(C(F)(F)F)n(C)c2=O)c(F)cc1Cl)C(=O)OCC (racemic) [1-121] | 5 |
| Cn1c(C(F)(F)F)ccc(-c2cc(C=NO)c(Cl)cc2F)c1=O [1-164] | 5 |
| CCCCOc1cc(-c2ccc(C(F)(F)F)n(C)c2=O)c(F)cc1Cl [1-166] | 5 |
| CCS(=O)(=O)Nc1cc(-c2ccc(C(F)(F)F)n(C)c2=O)c(F)cc1Cl [1-61] | 5 |

system: bulrush (Sc); experiment: as above; type: in vivo; conditions: 100 g of the active ingredient per 10 ares, 21st day after the application, index 0-5 of Table 47;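 note: grade of growth control; 5 = at least 90%; 4 = 70 to 90%; 3 = 50 to 70%; 2 = 30 to 50%; 1 = 10 to 30%; 0 = under 10%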
How it was run: as §2

| SMILES | Herbicidal effects Sc |
| --- | --- |
| CCCC(Oc1cc(-c2ccc(C(F)(F)F)n(C)c2=O)c(F)cc1Cl)C(=O)OCC (racemic) [1-121] | 5 |
| Cn1c(C(F)(F)F)ccc(-c2cc(C=NO)c(Cl)cc2F)c1=O [1-164] | 5 |
| CCCCOc1cc(-c2ccc(C(F)(F)F)n(C)c2=O)c(F)cc1Cl [1-166] | 5 |
| CCS(=O)(=O)Nc1cc(-c2ccc(C(F)(F)F)n(C)c2=O)c(F)cc1Cl [1-61] | 5 |

system: barnyardgrass (Ec); experiment: Test Example 3: herbicidal effects by upland field foliage treatment; type: in vivo; design: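 grade of growth control; 5 = at least 90%; 4 = 70 to 90%; 3 = 50 to 70%; 2 = 30 to 50%; 1 = 10 to 30%; 0 = under 10%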; conditions: 100 g of the active ingredient per 10 ares, evaluated on the 14th day after treatment
How it was run: (§3)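 Weeds were sown in sand-filled pots (surface area: 120 cm^2), covered with soil and grown in a greenhouse for 2 weeks before foliar treatment. Plants then stayed in the greenhouse, and herbicidal effect was scored against graded standards on the 14th day after treatment.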

| SMILES | Herbicidal effects Ec |
| --- | --- |
| CCCC(Oc1cc(-c2ccc(C(F)(F)F)n(C)c2=O)c(F)cc1Cl)C(=O)OCC (racemic) [1-121] | 5 |
| Cn1c(C(F)(F)F)ccc(-c2cc(C=NO)c(Cl)cc2F)c1=O [1-164] | 5 |
| CCCCOc1cc(-c2ccc(C(F)(F)F)n(C)c2=O)c(F)cc1Cl [1-166] | 4 |
| CCS(=O)(=O)Nc1cc(-c2ccc(C(F)(F)F)n(C)c2=O)c(F)cc1Cl [1-61] | 5 |

system: rice flatsedge (Ci); experiment: as above; type: in vivo; design: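 grade of growth control; 5 = at least 90%; 4 = 70 to 90%; 3 = 50 to 70%; 2 = 30 to 50%; 1 = 10 to 30%; 0 = under 10%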; conditions: 100 g of the active ingredient per 10 ares, evaluated on the 14th day after treatment
How it was run: as §3

| SMILES | Herbicidal effects Ci |
| --- | --- |
| CCCC(Oc1cc(-c2ccc(C(F)(F)F)n(C)c2=O)c(F)cc1Cl)C(=O)OCC (racemic) [1-121] | 5 |
| Cn1c(C(F)(F)F)ccc(-c2cc(C=NO)c(Cl)cc2F)c1=O [1-164] | 5 |
| CCCCOc1cc(-c2ccc(C(F)(F)F)n(C)c2=O)c(F)cc1Cl [1-166] | 5 |
| CCS(=O)(=O)Nc1cc(-c2ccc(C(F)(F)F)n(C)c2=O)c(F)cc1Cl [1-61] | 5 |

system: pale smartweed (Po); experiment: as above; type: in vivo; design: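 grade of growth control; 5 = at least 90%; 4 = 70 to 90%; 3 = 50 to 70%; 2 = 30 to 50%; 1 = 10 to 30%; 0 = under 10%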; conditions: 100 g of the active ingredient per 10 ares, evaluated on the 14th day after treatment
How it was run: as §3

| SMILES | Herbicidal effects Po |
| --- | --- |
| CCCC(Oc1cc(-c2ccc(C(F)(F)F)n(C)c2=O)c(F)cc1Cl)C(=O)OCC (racemic) [1-121] | 5 |
| Cn1c(C(F)(F)F)ccc(-c2cc(C=NO)c(Cl)cc2F)c1=O [1-164] | 5 |
| CCCCOc1cc(-c2ccc(C(F)(F)F)n(C)c2=O)c(F)cc1Cl [1-166] | 5 |
| CCS(=O)(=O)Nc1cc(-c2ccc(C(F)(F)F)n(C)c2=O)c(F)cc1Cl [1-61] | 5 |

system: common lambsquarters (Ch); experiment: as above; type: in vivo; design: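 grade of growth control; 5 = at least 90%; 4 = 70 to 90%; 3 = 50 to 70%; 2 = 30 to 50%; 1 = 10 to 30%; 0 = under 10%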; conditions: 100 g of the active ingredient per 10 ares, evaluated on the 14th day after treatment
How it was run: as §3

| SMILES | Herbicidal effects Ch |
| --- | --- |
| CCCC(Oc1cc(-c2ccc(C(F)(F)F)n(C)c2=O)c(F)cc1Cl)C(=O)OCC (racemic) [1-121] | 5 |
| Cn1c(C(F)(F)F)ccc(-c2cc(C=NO)c(Cl)cc2F)c1=O [1-164] | 5 |
| CCCCOc1cc(-c2ccc(C(F)(F)F)n(C)c2=O)c(F)cc1Cl [1-166] | 5 |
| CCS(=O)(=O)Nc1cc(-c2ccc(C(F)(F)F)n(C)c2=O)c(F)cc1Cl [1-61] | 5 |

system: Diaitaria ciliaris (Di); experiment: as above; type: in vivo; design: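 grade of growth control; 5 = at least 90%; 4 = 70 to 90%; 3 = 50 to 70%; 2 = 30 to 50%; 1 = 10 to 30%; 0 = under 10%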; conditions: 100 g of the active ingredient per 10 ares, evaluated on the 14th day after treatment
How it was run: as §3

| SMILES | Herbicidal effects Di |
| --- | --- |
| CCCC(Oc1cc(-c2ccc(C(F)(F)F)n(C)c2=O)c(F)cc1Cl)C(=O)OCC (racemic) [1-121] | 5 |
| Cn1c(C(F)(F)F)ccc(-c2cc(C=NO)c(Cl)cc2F)c1=O [1-164] | 5 |
| CCCCOc1cc(-c2ccc(C(F)(F)F)n(C)c2=O)c(F)cc1Cl [1-166] | 5 |
| CCS(=O)(=O)Nc1cc(-c2ccc(C(F)(F)F)n(C)c2=O)c(F)cc1Cl [1-61] | 5 |

system: slender amaranth (Am); experiment: as above; type: in vivo; design: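 grade of growth control; 5 = at least 90%; 4 = 70 to 90%; 3 = 50 to 70%; 2 = 30 to 50%; 1 = 10 to 30%; 0 = under 10%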; conditions: 100 g of the active ingredient per 10 ares, evaluated on the 14th day after treatment
How it was run: as §3

| SMILES | Herbicidal effects Am |
| --- | --- |
| CCCC(Oc1cc(-c2ccc(C(F)(F)F)n(C)c2=O)c(F)cc1Cl)C(=O)OCC (racemic) [1-121] | 5 |
| Cn1c(C(F)(F)F)ccc(-c2cc(C=NO)c(Cl)cc2F)c1=O [1-164] | 5 |
| CCCCOc1cc(-c2ccc(C(F)(F)F)n(C)c2=O)c(F)cc1Cl [1-166] | 5 |
| CCS(=O)(=O)Nc1cc(-c2ccc(C(F)(F)F)n(C)c2=O)c(F)cc1Cl [1-61] | 5 |
